Assay results taken from US10273218B2, “BCL-3 inhibitors” (University College Cardiff Consultants Limited, priority 2014, dated 2019).

How the values were obtained:
[1] = tested on: human breast cancer MDA-MB-231 xenograft; experiment: in vivo metastasis mouse Model 1 (seeding and early colonization of circulating tumour cells); parameters: species or system mice; conditions: 3.5 mg/Kg intraperitoneal daily for 10 days, relative luminescence of thoracic region; for inhibition of metastasis / tumour burden in Model 1: versus controls and compound 12
Description: In all experiments, each compound was administered by intraperitoneally at 3.5 mg/kg.
(§1) One model (Model 1) studied the effect of the compound's ability to inhibit the seeding and early colonization of circulating tumour cells at distal sites, most commonly in the lungs and liver. Human tumour cell lines were injected into the bloodstream of recipient mice, followed by single daily intraperitoneal injections of the compound (3.5 mg/kg in 1% DMSO) for 10 consecutive days. Tumour burden was monitored longitudinally for up to 8 weeks in vivo by live luminescence imaging, and subsequently histology performed on affected organs at the end of the experiment.
as §1, with “Model 1 tested” for “One model (Model 1) studied”, “Bcl3i compounds” for “the compound's ability”, “Bcl3 inhibitor” for “the compound”
The X axis represents the number of days after xenograft and the Y axis is the relative luminescence of the thoracic region by Xenon IVIS scanning of mice following injection of d-luciferin for 10 minutes.
MDA-MB-231 human breast cancer cells were used in each of the three xenograft models of metastatic breast cancer.

[2] = tested on: human breast cancer cell line MDA-MB-436; experiment: transwell (Boyden chamber) cell migration assay after scratch; type: cell-based; conditions: 10 micromolar compound, 24 hours before and 24 hours in transwell chambers, versus DMSO, compound 12, MEKi
Description: The migration of cells in the presence of a compound of Formula (I) or Formula (Ia) is determined using a Scratch assay.
For the Scratch Assay, 1 micromolar solutions of the compounds are prepared. In six well plates, the complete growth media of the seeded cells (density […] in 20 mL) is removed and replaced by 3 mL of a fresh one containing compounds of Formula (I) or Formula (Ia). Media is used as a negative compound.
After a 24 h incubation period at 5% CO2 and 37° C., the media is removed and a scratch is performed in each well. 1 mL of fresh complete growth media is used to wash the well. After its removal, 3 mL of a solution containing a compound of Formula (I) or Formula (Ia) is added in each well in triplicate. Pictures of the wells are then taken. After 24 h, pictures of the wells are again taken. […]
The cell migration assay used was the transwell (Boyden chamber) assay of cell migration in human breast cancer cell line MDA-MB-436. After a scratch was performed in each well the cells were incubated with a 10 micromolar solution of compound for 24 hours prior to passage into transwell chambers where they were maintained in the presence of compound for a further 24 hours before assessment of migration (measured by total fluorescence on opposing surface of transwell membrane following staining). Reduced fluorescence directly correlates with number of cells migrated. […]

[3] = tested on: MDA-MB-231-Luc highly metastatic human breast cancer cells; experiment: in vivo metastasis mouse model, disease free survival; parameters: species or system Nude mice; conditions: 3.5 mg/Kg once daily for 10 days; MDA-MB-231-Luc i.v.; monitored up to 49 days
Description: Nude mice are injected i.v. with 200,000 highly metastatic human breast cancer cells expressing luciferase (MDA-MB-231-Luc) then are given a compound of Formula (I) or Formula (Ia) once daily for about 10 days and are monitored for tumours by total body scan using Xenogen-IVIS. Mice with a luciferase signal above background in repeated scans in any part of their torso are scored as having metastatic disease. Total light emission in the abdominal region is quantified at time points up to 49 days post surgery and plotted as mean total light yield.
Nude mice were injected i.v. with 200,000 highly metastatic human breast cancer cells expressing luciferase (MDA-MB-231-Luc) then given 3.5 mg/Kg of compound 12, reference compound A, or Reference compound B once daily for 10 days and monitored for tumours by total body scan using Xenogen-IVIS. Mice with a luciferase signal above background in repeated scans in any part of their torso were scored as having metastatic disease. Total light emission in abdominal region was quantified at time points up to 49 days post surgery and plotted as mean total light yield. Control n=12, Reference compound A n=10, Reference compound B n=4; compound 12 n=4.

melting point	Compound	inhibition of metastasis / tumour burden in Model 1 [1]	reduction of cell migration (total fluorescence on opposing surface of transwell membrane) [2]	potency of effect in Model 1 relative to compound 28 [1]	disease free survival [3]
105 to 107 °C	COc1ccc(C(=O)Nc2cccc(F)c2C(=O)NCCN2CCOCC2)c(F)c1 [Compound 28]	significant reduction in tumour burden compared to controls but reduced effect compared to compound 12	–	–	–
–	O=C(Nc1ccccc1C(=O)NCCN1CCOCC1)c1ccc2ccccc2c1 [Compound 31]	equivalent inhibition of metastasis in vivo to compound 12	more effective at reducing cell migration than the known potent cell migration inhibitor MEKi	more potent effects than compound 28	–
116 °C	CN1CCN(CCNC(=O)c2ccccc2NC(=O)c2ccccc2F)CC1 [Compound 49, 2-fluoro-N-(2-((2-(4-methylpiperazin-1-yl)ethyl)carbamoyl)phenyl)benzamide]	equivalent inhibition of metastasis in vivo to compound 12	–	more potent effects than compound 28	–
–	O=C(Nc1ccccc1C(=O)NCCN1CCOCC1)c1ccccc1F [Reference compound A]	–	–	–	70%
–	COc1ccc(C(=O)Nc2ccccc2C(=O)NCCN2CCOCC2)cc1 [Reference compound B]	–	–	–	50%
